Results as given in patent publication US8754212B2, “Process for the preparation of stable, amorphous calcium salt of (6S)-N(5)-methyl-5,6,7,8-tetrahydrofolic acid” (Cerbios-Pharma S.A., priority 2007, dated 2014).
Read-outs that look alike come from different tables or passages of the source.

Tests used:
[1] = stored at 4° C.
Source text: For the determination of the purity and of the ratio of the diastereoisomers a sample of the compound of formula IV was washed with 94% (v/v) aqueous ethanol and was then dried under reduced pressure.

[2] = stored at 25° C. under vacuum [2 mbar]

Row | Structure (SMILES) | HPLC purity (%) ([1]; time 0 months) | HPLC purity (%) ([1]; time 6 months) | HPLC assay (%) ([2]; time 0 months) | HPLC purity (%) ([2]; time 0 months) | HPLC assay (%) ([2]; time 1 month) | HPLC purity (%) ([2]; time 1 month) | HPLC assay (%) ([2]; time 2 months) | HPLC purity (%) ([2]; time 2 months) | HPLC assay (%) ([2]; time 3 months) | HPLC purity (%) ([2]; time 3 months) | HPLC assay (%) ([2]; time 6 months) | HPLC purity (%) ([2]; time 6 months) | HPLC assay (%) ([2]; time 9 months) | HPLC purity (%) ([2]; time 9 months)
1 | CN1c2c(nc(N)[nH]c2=O)NC[C@@H]1CNc1ccc(C(=O)N[C@@H](CCC(=O)O)C(=O)O)cc1 [formula IV, (6S)—N(5)-methyl-5,6,7,8-tetrahydrofolic acid] | 96.45% | 96.66% |  |  |  |  |  |  |  |  |  |  |  | 
2 | CN1c2c(nc(N)[nH]c2=O)NC[C@@H]1CNc1ccc(C(=O)NC(CCC(=O)[O-])C(=O)[O-])cc1.[Ca+2] (stereo partly drawn) [formula V, calcium salt of (6S)—N(5)-methyl-5,6,7,8-tetrahydrofolic acid] |  |  | 99.0% | 98.7% | 98.8% | 98.7% | 99.8% | 98.9% | 100.2% | 98.8% | 99.9% | 98.5% | 100.7% | 98.9%
